2 compounds from patent publication US20210196782A1 (priority 2015, published 2021) can be followed below.

In assay [1] the test system is mouse middle cerebral artery occlusion (MCAO) stroke model. The conditions noted are these: in vivo.
The test system of assay [2] is primary cortical neurons. It counts as cell-based.
Assay [3] relates to mouse middle cerebral artery occlusion (MCAO) stroke model. The conditions noted are these: in vivo. This is another data set of the same source.
The test system of assay [4] is primary cortical neurons.
The subject of assay [5] is mouse middle cerebral artery occlusion (MCAO) stroke model. The conditions noted are these: in vivo. The source holds these as a separate data set.
Assay [6] concerns primary cortical neurons. It counts as cell-based. This is another data set of the same source.
For assay [7], the system named is primary cortical neurons. In kind it is cell-based. This is another data set of the same source.
Assay [8] relates to primary cortical neurons. The source holds these as a separate data set.

“Also recorded” adds a separate entry of the source.

On to `C[C@@H](NC(=O)[C@@H](N)Cc1ccc(O)cc1)C(=O)NCC(=O)N[C@@H](Cc1ccccc1)C(=O)NNC(=O)[C@H](Cc1ccccc1)NC(=O)CNC(=O)[C@@H](C)NC(=O)[C@@H](N)Cc1ccc(O)cc1` [biphalin], for which, in assay [1], the “edema formation, in words” value was “significantly decreased edema formation”; the “infarct formation, in words” value is given as “significantly decreased; also recorded: significantly reduced infarct formation”; the “reduction in edema formation” value amounted to 56.17%; the “reduction in infarct ratio” value came out at 67.0%. Moreover, in the assay on primary cortical neurons [2], the “ROS production, in words” value is “significantly decreased ROS production” and the “less ROS production” value turned out to be 29.1%. Further, in assay [3], the neurological score improvement is 25.5% and the “neurological score, in words” value is “improved neurological behavior”. The “neuronal survival (MTT), NMDA, in words” value with primary cortical neurons [4] was “significantly improved relative neuronal survival”. The “more neuronal survival (MTT), NMDA” value in the assay on primary cortical neurons [4] (3 h) stood at 28.7%. For the same compound, in assay [5], the “Horizontal Activity” value was found to be 760, the “No. of Movements” value amounted to 42, the “Rest Time” value worked out at 240 s and the “Stereotpy Counts” value was 390. For the same compound, in assay [5], the “Total Distance (CM)” value was found to be 650 CM; the “Vertical Activity” value amounted to 28; the “locomotor parameters, in words” value is given as “statistically significantly improved all the locomotor parameters”. Moreover, in the assay with primary cortical neurons [6], the “less LDH release, NMDA” value was determined as 18.4% and the “neuronal death (LDH), NMDA, in words” value is on record as “significantly decreased relative neuronal death”. In the assay with primary cortical neurons [7], the “less LDH release” value came out at 30.5% and the “neuronal death (LDH), in words” value was “significantly decreased neuronal cell death”. Moreover, in the assay on primary cortical neurons [8], the “neuronal survival (MTT), in words” value is “significantly increased neuronal survival”. Further, the “more neuronal survival (MTT)” value with primary cortical neurons [8] (3 h, 10 nM) is 42.6%.
In the case of `O=C1CC[C@@]2(O)[C@H]3Cc4ccc(O)c5c4[C@@]2(CCN3CC2CC2)[C@H]1O5` [NTX, naltrexone], the “ROS production, in words” value in the assay on primary cortical neurons [2] is reported as “did not show a significant decrease in ROS production”. For the same compound, in assay [3], the “neurological score, in words” value is recorded as “did not improve any neurological score”. Further, in the assay on primary cortical neurons [4], the “neuronal survival (MTT), NMDA, in words” value is recorded as “did not show any significant effect”. Further, in the assay on primary cortical neurons [6], the “neuronal death (LDH), NMDA, in words” value was “did not show any significant effect”. The “neuronal death (LDH), in words” value in the assay on primary cortical neurons [7] was “No statistical significant difference”. Further, the “neuronal survival (MTT), in words” value in the assay on primary cortical neurons [8] is reported as “No statistical significant difference”.
